From ChEMBL document CHEMBL5321246, “Aurones: A Promising Scaffold to Inhibit SARS-CoV-2 Replication” (J Nat Prod, 2023)

System: SARS-CoV-2
Assay: Antiviral activity against SARS-CoV-2 infected in Vero E6 cells assessed as inhibition of viral replication preincubated with cells for 1 hr and subsequent viral infection for 2 hrs followed by replacement with fresh medium containing compounds and measured after 24 hrs by qRT-PCR analysis
Assay type: functional, organism-based
Conditions: Severe acute respiratory syndrome coronavirus 2, Vero C1008

O=c1c(O)c(-c2cc(O)c(O)c(O)c2)oc2cc(O)cc(O)c12 [MYRICETIN]
EC50: 8 µM
